Laboratory results published in patent publication US7056734B1, “Differentiation of non-insulin producing cells into insulin producing cells by GLP-1 or exendin-4 and uses thereof” (The United States of America as represented by the …, priority 1998, dated 2006).

Tests used:
Wistar rats = test: Acute intravenous GLP-1 bolus, plasma insulin response in young and old rats; type: in vivo, rat; settings: 0.2 nmol/kg iv bolus; for maximal insulin response: 2 min after completion of the bolus
Protocol: Protocols. To insure that old animals were capable of responding to GLP-1, we carried out an acute experiment with an intravenous bolus of GLP-1. Six old (22 months) and 6 young (3 months) Wistar rats were fasted overnight. Following anesthesia with 50 mg/kg pentobarbital, a catheter was placed in the femoral artery for blood sampling, and a bolus of GLP-1 (0.2 nmol/kg) was given into the saphenous vein over 30 sec. Blood (taken at 2, 4, 7, and 10 min) was collected for insulin determination.

22 month old Wistar rats = test: Intraperitoneal glucose tolerance test after 48 hrs subcutaneous GLP-1 infusion; type: in vivo, rat; settings: […] for 48 hrs
Protocol: (§1) The rats were implanted with an Alzet micro-osmotic pump (Alza Corp., Palo Alto, Calif.) in the interscapular region for 48 hrs. […] Control animals received normal saline in their pumps and received their infusion for the same length of time.
Blood samples were obtained at 15, 30, 45, 60, and 90 min in order to estimate glucose and insulin levels. Blood (200 μl) was drawn into heparinized tubes containing EDTA for glucose and insulin determination.
Assays. Plasma glucose was measured by the glucose oxidase method (Egan et al., 1991). […] The amount of cellular proteins was measured using the Bradford method (Bio-Rad Richmond, Calif.) using bovine γ-globulin as standard.

glucokinase mRNA = test: Slot-blot quantitation of glucokinase mRNA in pancreata and islets; type: in vivo, rat; settings: young (P<0.05), much more so in old animals (P<0.001)
Description: as §1
After an overnight fast, animals were sacrificed, pancreata were removed and frozen in liquid nitrogen as quickly as possible. RNA was extracted by homogenization in guanidinium isothiocyanate, followed by ultracentrifugation on a 5.7 M cesium chloride cushion (Glisin et al., 1974; Chigwin et al., 1979). Poly-A RNA was then prepared from total RNA by affinity chromatography using oligo (dT) columns (Biolabs INC, Beverly, Mass.). RNA was quantified by spectrophotometric analysis at […]. Slot-blot analysis using poly-A RNA was used for quantitation of mRNA levels of glucokinase, which is the main glucose sensor of the beta cell (Matschinsky, 1990), the three hexokinases, GLUT2, the major glucose transporter of the beta cell (Mueckler, 1990), and insulin. Four micrograms of poly-A RNA were diluted in 50 μl TE buffer (Tris-HCL 10 mM, EDTA 1 mM, pH 7.4), 20 μl of 37% formaldehyde and 20 μl of 10× SSC. Samples were incubated at 60° C. for 15 min and then diluted with 1 ml of ice-cold 10× SSC (1×SCC=0.15 M NaCl+0.015 sodium citrate). […]

AR42J cells = test: Protein tyrosine phosphorylation in AR42J cells; type: cell-based, rat; settings: 5 min treatment
Protocol: Tyrosine Phosphorylation Studies. […] Then the medium was removed and fresh KRBB was added, followed by placing the cell on a 37° C. hot plate for 5 min. After addition of various reagents (see FIG. 24) for 5 min the reaction was terminated by submersion of the dishes in liquid nitrogen. The frozen cells were scraped and lysed in RIPA buffer. […] The blots were developed using the ECL chemiluminescence detection system (Amersham).

Biological half-life = type: in vivo; settings: compared with several minutes for GLP-1

In the case of `CC[C@H](C)[C@H](NC(=O)[C@H](Cc1ccccc1)NC(=O)[C@H](CCC(=O)O)NC(=O)[C@H](CCCCN)NC(=O)[C@H](C)NC(=O)[C@H](C)NC(=O)[C@H](CCC(N)=O)NC(=O)CNC(=O)[C@H](CCC(=O)O)NC(=O)[C@H](CC(C)C)NC(=O)[C@H](Cc1ccc(O)cc1)NC(=O)[C@H](CO)NC(=O)[C@H](CO)NC(=O)[C@@H](NC(=O)[C@H](CC(=O)O)NC(=O)[C@H](CO)NC(=O)[C@@H](NC(=O)[C@H](Cc1ccccc1)NC(=O)[C@@H](NC(=O)CNC(=O)[C@H](CCC(=O)O)NC(=O)[C@H](C)NC(=O)[C@@H](N)Cc1c[nH]cn1)[C@@H](C)O)[C@@H](C)O)C(C)C)C(=O)N[C@@H](C)C(=O)N[C@@H](Cc1c[nH]c2ccccc12)C(=O)N[C@@H](CC(C)C)C(=O)N[C@H](C(=O)N[C@@H](CCCCN)C(=O)NCC(=O)N[C@@H](CCCNC(=N)N)C(N)=O)C(C)C` [GLP-1], the maximal insulin response (Wistar rats; old (22 month) fasted rats) is reported as 347.7 ± 25.7 pmol/L, the maximal insulin response (Wistar rats; young (3 month) fasted rats) is reported as 373.3±43.7 pmol/1 and the “time at which insulin levels had returned to baseline” value (Wistar rats; young and old rats) is reported as 10 min. The “blood glucose during glucose tolerance test” value (22 month old Wistar rats; 15 min after 1 g/kg ip glucose, control 11.61±0.23) was 9.04 ± 0.92 mmol/L, the “blood glucose during glucose tolerance test” value (22 month old Wistar rats; 30 min after 1 g/kg ip glucose, control 10.36±0.43) was 8.61 ± 0.39 mmol/L and the “glucokinase mRNA levels” value (glucokinase mRNA) was “significantly increased”. The “effect on protein tyrosine phosphorylation” value (AR42J cells) was “did not have any effect”.
For exendin-4, the half-life (Biological half-life) was “on the order of hours”.
